US20160362399A1, “ARYL, HETEROARYL, AND HETEROCYCLIC COMPOUNDS FOR TREATMENT OF COMPLEMENT MEDIATED DISORDERS” (Achillion Pharmaceuticals, Inc., priority 2014, published 2016)

What follows are molecules tested against T1, Human factor D (Homo sapiens, UniProt P00746) (assay: Human Factor D Assay). Settings: not given.
T1 construct: purified from human serum; purchased Complement Technology, Inc; host or cells: human serum
Assay type: biochemical
Description: Other standard factor D inhibition assays are also available.
Human factor D (purified from human serum, Complement Technology, Inc.) at 80 nM final concentration is incubated with test compound at various concentrations for 5 minutes at room temperature in 50 mM Tris, 1M NaCl, pH 7.5. A synthetic substrate Z-L-Lys-SBzl and DTNB (Ellman's reagent) are added to final concentrations of 100 μM each. The increase in color is recorded at OD405 nm in a microplate in kinetic mode over 30 minutes with 30 second time points in a spectrofluorimeter. IC50 values are calculated by non-linear regression from the percentage of inhibition of complement factor D activity as a function of test compound concentration.

T1 sequence (P00746 26-253): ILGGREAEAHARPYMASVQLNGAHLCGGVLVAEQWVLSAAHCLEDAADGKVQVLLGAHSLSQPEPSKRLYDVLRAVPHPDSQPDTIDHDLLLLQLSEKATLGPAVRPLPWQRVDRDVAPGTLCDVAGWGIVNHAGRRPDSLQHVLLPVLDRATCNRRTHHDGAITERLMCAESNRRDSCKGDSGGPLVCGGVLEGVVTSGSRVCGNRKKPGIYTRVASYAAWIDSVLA

SMILES	IC50 [µM]
CC(=O)c1cn(CC(=O)N2C[C@H](F)C[C@H]2C(=O)Nc2cccc(-c3ccccc3Cl)c2F)c2ccc(C3=CCN(C(C)=O)CC3)cc12 [Compound 28, (2S,4R)-1-(2-(3-acetyl-5-(1-acetyl-1,2,3,6-tetrahydropyridin-4-yl)-1H-indol-1-yl)acetyl)-N-(2′-chloro-2-fluorobiphenyl-3-yl)-4-fluoropyrrolidine-2-carboxamide]	< 1
NC(=O)c1nn(CC(=O)N2C[C@H](F)C[C@H]2C(=O)N[C@@H]2CCC[C@@H]2OCc2ccccc2)c2ccc(-c3ccnnc3)cc12 [Compound 51, 1-(2-((2S,4R)-2-((1R,2S)-2-(benzyloxy)cyclopentylcarbamoyl)-4-fluoropyrrolidin-1-yl)-2-oxoethyl)-5-(pyridazin-4-yl)-1H-indazole-3-carboxamide]	> 10

Same assay, conditions: human factor D 80 nM, substrate Z-L-Lys-SBzl, assay of Example 7; read-out: IC50

SMILES	IC50 [µM]
Cc1nc2sccn2c1-c1csc(NC(=O)[C@@H]2C[C@@H](F)CN2C(=O)Cn2nc(C(N)=O)c3cc(-c4ccnnc4)ccc32)n1 [Compound 58, 1-(2-((2S,4R)-4-fluoro-2-(4-(6-methylimidazo[2,1-b]thiazol-5-yl)thiazol-2-ylcarbamoyl)pyrrolidin-1-yl)-2-oxoethyl)-5-(pyridazin-4-yl)-1H-indazole-3-carboxamide]	> 10
NC(=O)c1nn(CC(=O)N2C[C@H](F)C[C@H]2C(=O)Nc2ccccc2-c2nc3ccccc3s2)c2ccc(-c3ccnnc3)cc12 [Compound 41, 1-(2-((2S,4R)-2-(2-(benzo[d]thiazol-2-yl)phenylcarbamoyl)-4-fluoropyrrolidin-1-yl)-2-oxoethyl)-5-(pyridazin-4-yl)-1H-indazole-3-carboxamide]	> 10
CC(=O)c1cn(CC(=O)N2[C@@H]3C[C@@H]3C[C@H]2C(=O)Nc2cccc(Br)n2)c2ccc(-c3cnc(C)nc3)cc12 [Compound 132, (1R,3S,5R)-2-(2-(3-acetyl-5-(2-methylpyrimidin-5-yl)-1H-indol-1-yl)acetyl)-N-(6-bromopyridin-2-yl)-2-azabicyclo[3.1.0]hexane-3-carboxamide]	< 1
COc1ncc(-c2ccc3c(c2)c(C(N)=O)nn3CC(=O)N2C[C@H](F)C[C@H]2C(=O)Nc2cccc(-c3ccccc3Cl)c2F)cn1 [Compound 29, 1-(2-((2S,4R)-2-(2′-chloro-2-fluorobiphenyl-3-ylcarbamoyl)-4-fluoropyrrolidin-1-yl)-2-oxoethyl)-5-(2-methoxypyrimidin-5-yl)-1H-indazole-3-carboxamide]	< 1
